Test results from patent US4853221A, “Method for treating non-small cell lung cancer, head and neck cancers and breast cancer” (Warner-Lambert Company, priority 1987, dated 1989).

How the values were obtained:
[1] = test system: transplanted rodent tumors which are resistant to methotrexate; assay: Activity against methotrexate-resistant transplanted rodent tumors; conditions: in vivo
[2] = test system: Melanoma; assay: Human tumor cloning system, melanoma; assay type: cell-based; conditions: one hour, 5 specimens
Source text: (§1) The activity of trimetrexate was compared with that of methotrexate in tests with a human tumor cloning system (Latham, et al., Proc. Am. Assoc. Cancer Res., 24: 278 (1983)). The data from these tests appear in Table III were the activities are expressed as the numbers of tumors with 50% or greater reduction in tumor colony forming units after one hour exposure to the drug.

[3] = test system: Renal tumor; assay: Human tumor cloning system, renal tumors; assay type: cell-based; conditions: one hour, 6 specimens
Source text: as §1

[4] = test system: B-16 Melanoma; assay: Antitumor activity against B-16 melanoma in mice; assay type: in vivo, mouse; conditions: for Life Span % ILS / Life Span % T/C: ip daily, Days 1-9
Protocol: (§2) The growth inhibition properties of 5-methyl-6-[[(3,4,5-trimethoxyphenyl)amino]methyl]-2,4-quinazolinediamine (trimetrexate) against several transplanted murine tumors were evaluated employing the antitumor screening program of the Drug Evaluation Branch of the National Cancer Institute. The protocols for these tests is described in Cancer Chemotherapy Reports, 3: 1-103 (1972). The dosing schedules are results from these tests appear in Table IV.
(§3) In the L1210, P388, and B-16 melanoma models, results are expressed as a percentage of median control survival time. Percentage of increase in survival time and/or cures (30 day survivors) were the parameters used to measure the effectiveness of the agents. An initial median survival value for treated over control percentage (% T/C) equal to or greater than 125% was considered indicative of activity. For confirmatory activity, two multidose assays must show % T/C values equal to or greater than 150%.
(§4) Percent increase in median life span (% ILS) values appearing in the tables were calculated from the formula; 100×(median life span in days of treated mice minus median life span in days of untreated mice) divided by median life span in days of untreated control mice. That is, % ILS=[100×(T-C)]/C. % T/C and %ILS are directly interconvertible by the formula % ILS=% T/C -100.
B16 Melanotic melanoma was implanted into BD2F1 mice in the form of a tumor "brei" prepared from a 1:10 weight/volume homogenate of the tumor in balanced salt solution.
(§5) In all of the mouse tumor studies described above, routine controls consisted of matching ten normal mice (with no tumors) to each tumor-bearing treatment group and injecting them with the same drug at the same dosages, schedules, days of administration, and drug route as the tumor-bearing mice. In this way, drug-induced toxicity (lethality and weight loss) could be clearly separated from the effects of the drug on the tumors.

[5] = test system: L1210 cells; assay: Inhibition of L1210 cell growth in vitro; assay type: cell-based, murine
Protocol: (§6) Two leukemia cell lines (L1210 and L5178Y) and two solid tumor cell lines (Sarcoma 180 and Walker 256) were used in these studies.
(§7) Logarithmically growing L1210 cells (approximately 3×10^5 cells/ml) were diluted with Fischer's medium (containing 10% horse serum) to an approximate concentration of 5×10^4 cells/ml. Cells were planted in duplicate into 15 ml culture tubes containing either no drug or various amounts of drug, and incubated for 48 hours at 37° C. before being counted.
*ED50 = the concentration of drug required to reduce the cell count
to 50%, determined by plotting the cell count versus drug concentration.

[6] = test system: Sarcoma-180; assay: Inhibition of Sarcoma-180 cell growth in vitro; assay type: cell-based; conditions: Mus musculus, 48 h; Murine Sarcoma-180; read-out: ED50 (the source's name)
Protocol: as §6, §7
(§8) Trimetrexate was also evaluated in a similar manner side-by-side with methotrexate for its effect on the growth of three additional murine cell lines (L5178Y, Sarcoma-180, and Walkler-256) and three human cell lines (acute myelogenous leukemia K-562, T-cell 8402, and B-cell 8392), propagated in vitro.

[7] = test system: Miscell. tumors; assay: Human tumor cloning system, miscellaneous tumors; assay type: cell-based; conditions: one hour, 10 specimens
Source text: as §1

[8] = test system: L5178Y; assay: Inhibition of L5178Y cell growth in vitro; assay type: cell-based, murine
Protocol: as §6, §7, §8

[9] = Oral bioavailability; conditions: in vivo, administered orally
[10] = test system: Ovarian tumor; assay: Human tumor cloning system, ovarian tumors; assay type: cell-based; conditions: one hour, 6 specimens
Source text: as §1

[11] = test system: CD8F1 Mammary tumor; assay: Antitumor activity against CD8F1 mammary tumor in mice; assay type: in vivo, mouse; conditions: for Tumor Weight Inhibition % TWI: Sc every 7 days, Days 1,8,15,22,19
Protocol: as §2
Mouse Mammary Tumor Was propagated in CD8F1 female mice as spontaneous tumors. Approximately 10^6 cells were then implanted subcutaneously into CD8F1 mice. […] At the end of the experiment (30 days), individual tumor weights were determined by caliper measurements. Each tumor weight was calculated as described previously for colon 26 and 38 tumors. A criterion of % T/C tumor weight of 42% or less was considered indicative of activity, with a reproducible 10% T/C tumor weight or less indicative of substantive activity.
as §5

[12] = test system: AML K-562; assay: Inhibition of AML K-562 cell growth in vitro; assay type: cell-based, human; conditions: K562, 48 h; Human AML K-562; read-out: ED50 (the source's name)
Protocol: as §7, §8

[13] = test system: L1210; assay: Antitumor activity against L1210 leukemia in mice; assay type: in vivo, mouse; conditions: for Life Span % ILS / Life Span % T/C: ip daily, Days 1-9
Protocol: as §2, §3, §4
L1210 Leukemic Cells (10^5 /mouse) and P388 leukemic cells (10^6 /mouse)were in the ascites form and were transferred to BD2F1 or CD2F1 mice by intraperitoneal (ip) injection of 0.1 ml of cells taken from animals bearing 6- to 7-day old tumors. Leukemic cells were injected ip one day prior to the start of treatment.
as §5

[14] = test system: salivary gland cancer; assay: Phase I clinical trials, salivary gland cancer; assay type: in vivo, human; conditions: single agent
Protocol: Several Phase I clinical trials employing trimetrexate in human patients were carried out. In one study, 36 patients were treated with trimetrexate as a single agent at daily doses of 0.5 mg/m^2 /day to 12 mg/m^2 /day administered intravenously for five days.
In additional Phase I clinical studies, patients were administered trimetrexate with single intravenous doses ranging between 5 and 450 mg/m^2 and with weekly doses of slightly greater than 100 mg/m^2.

[15] = optimal dose 20 mg/kg (dose range 20-0.62)
[16] = optimal dose 20 mg/kg (dose range 40-1.25)
[17] = optimal dose 20 mg/kg (dose range 80-5)
[18] = optimal dose 80 mg/kg (dose range 80-5)

COc1cc(NCc2ccc3nc(N)nc(N)c3c2C)cc(OC)c1OC [Trimetrexate, 5-methyl-6-[[(3,4,5-trimethoxyphenyl)amino]methyl]-2,4-quinazolinediamine]
activity against methotrexate-resistant transplanted rodent tumors [1]: activity against a variety of transplanted rodent tumors
Number of Tumors with 50% or Greater Decrease in Tumor Colony Forming Units ([2]; trimetrexate 0.1 μg/ml): 2
Number of Tumors with 50% or Greater Decrease in Tumor Colony Forming Units ([2]; trimetrexate 1.0 μg/ml): 3
Number of Tumors with 50% or Greater Decrease in Tumor Colony Forming Units ([3]; trimetrexate 0.1 μg/ml): 1
Number of Tumors with 50% or Greater Decrease in Tumor Colony Forming Units ([3]; trimetrexate 1.0 μg/ml): 1
antitumor activity ([4]; intraperitoneally implanted): good activity
Life Span % ILS [4, 15]: 50%
Life Span % T/C [4, 15]: 150%
Life Span % ILS [4, 16]: 64%
Life Span % T/C [4, 16]: 164%
inhibition of L1210 cell growth [5]: potent inhibitor of L1210 cell growth
IC50 ([5]; Mus musculus, L1210, concentration required to reduce the cell count to 50%, 48 hours at 37° C, read-out: ED50 for L1210 Cells): 7 nM
IC50 [6]: 18 nM
Number of Tumors with 50% or Greater Decrease in Tumor Colony Forming Units ([7]; trimetrexate 0.1 μg/ml): 2
Number of Tumors with 50% or Greater Decrease in Tumor Colony Forming Units ([7]; trimetrexate 1.0 μg/ml): 1
IC50 ([8]; Mus musculus, 48 h, Murine L5178Y, read-out: ED50 (the source's name)): 2 nM
potency relative to methotrexate ([8]; on a molar basis): only slightly more effective on a molar basis
bioavailability [9]: ~80%
Number of Tumors with 50% or Greater Decrease in Tumor Colony Forming Units ([10]; trimetrexate 0.1 μg/ml): 1
Number of Tumors with 50% or Greater Decrease in Tumor Colony Forming Units ([10]; trimetrexate 1.0 μg/ml): 1
Tumor Weight Inhibition % TWI ([11]; optimal dose 120 mg/kg (dose range 120-3.75)): 100%
Tumor Weight Inhibition % TWI ([11]; optimal dose 180 mg/kg (dose range 270-35)): 100%
antitumor activity ([11]; subcutaneously implanted): good activity
IC50 [12]: 10 nM
antitumor activity ([13]; mouse, in vivo): good activity
Life Span % ILS [13, 17]: 72%
Life Span % T/C [13, 17]: 172%
Life Span % ILS [13, 18]: 96%
Life Span % T/C [13, 18]: 196%
patients with favorable responses [14]: two
